Experimental data published in ChEMBL document CHEMBL3046815, “Evaluation of fungicides for the management of Botryosphaeria dieback diseases of grapevines” (Pest Manag Sci, 2012).

Legend:
[1] = tested on: Diplodia mutila; experiment: Fungicidal activity against Diplodia mutila Q assessed as mycelial growth inhibition after 48 hr; assay type: functional, organism-based; conditions: pooled result: one value given for 3 cell lines, strains, targets or settings
[2] = tested on: Neofusicoccum luteum; experiment: Fungicidal activity against Neofusicoccum luteum infected Pinot noir grapevine assessed as mean pathogen compound applied 24 hr prior inoculation to pruning wound measured after 1 year; assay type: functional; design: concentration or dose not given beside the values
[3] = tested on: Neofusicoccum luteum; experiment: Fungicidal activity against Neofusicoccum luteum infected Pinot noir grapevine assessed as pathogen incidence at dieback sites compound applied 24 hr prior inoculation to pruning wound measured after 1 year; assay type: functional; design: concentration or dose not given beside the values
[4] = tested on: Neofusicoccum luteum; experiment: Fungicidal activity against Neofusicoccum luteum infected Pinot noir grapevine assessed as pathogen incidence at dieback edges compound applied 24 hr prior inoculation to pruning wound measured after 1 year; assay type: functional; design: concentration or dose not given beside the values
[5] = tested on: Neofusicoccum luteum; experiment: Fungicidal activity against Neofusicoccum luteum N(12)2 assessed as conidial germination inhibition after 48 hr; assay type: functional, organism-based; conditions: pooled result: one value given for 3 cell lines, strains, targets or settings
[6] = tested on: Neofusicoccum australe; experiment: Fungicidal activity against Neofusicoccum australe J-3 assessed as conidial germination inhibition after 48 hr; assay type: functional, organism-based; conditions: pooled result: one value given for 3 cell lines, strains, targets or settings
[7] = tested on: Neofusicoccum luteum; experiment: Fungicidal activity against Neofusicoccum luteum infected Pinot noir grapevine assessed as pathogen incidence at closest side shoot compound applied 24 hr prior inoculation to pruning wound measured after 6 months; assay type: functional; design: concentration or dose not given beside the values
[8] = tested on: Neofusicoccum luteum; experiment: Fungicidal activity against Neofusicoccum luteum N(12)2 assessed as mycelial growth inhibition after 48 hr; assay type: functional, organism-based; conditions: pooled result: one value given for 3 cell lines, strains, targets or settings
[9] = tested on: Neofusicoccum luteum; experiment: Fungicidal activity against Neofusicoccum luteum infected Pinot noir grapevine assessed as dieback lesion length at 45 g AI /100 L applied 24 hr prior inoculation to pruning wound measured after 3 months; assay type: functional
[10] = tested on: Neofusicoccum luteum; experiment: Fungicidal activity against Neofusicoccum luteum infected Pinot noir grapevine assessed as pathogen incidence at 45 g AI /100 L applied 24 hr prior inoculation to pruning wound measured after 3 months; assay type: functional
[11] = tested on: Diplodia mutila; experiment: Fungicidal activity against Diplodia mutila Q assessed as conidial germination inhibition after 48 hr; assay type: functional, organism-based; conditions: pooled result: one value given for 3 cell lines, strains, targets or settings
[12] = tested on: Neofusicoccum australe; experiment: Fungicidal activity against Neofusicoccum australe J-3 assessed as mycelial growth inhibition after 48 hr; assay type: functional, organism-based; conditions: pooled result: one value given for 3 cell lines, strains, targets or settings
[13] = tested on: Neofusicoccum luteum; experiment: Fungicidal activity against Neofusicoccum luteum infected Pinot noir grapevine assessed as pathogen incidence at area beyond node compound applied 24 hr prior inoculation to pruning wound measured after 1 year; assay type: functional; design: concentration or dose not given beside the values
[14] = tested on: Neofusicoccum luteum; experiment: Fungicidal activity against Neofusicoccum luteum infected Pinot noir grapevine assessed as non-lesion areas compound applied 24 hr prior inoculation to pruning wound measured after 1 year; assay type: functional; design: concentration or dose not given beside the values
[15] = tested on: Neofusicoccum luteum; experiment: Fungicidal activity against Neofusicoccum luteum infected Pinot noir grapevine assessed as pathogen incidence at 25 g AI /100 L applied 24 hr prior inoculation to pruning wound measured after 3 months; assay type: functional
[16] = tested on: Neofusicoccum luteum; experiment: Fungicidal activity against Neofusicoccum luteum infected Pinot noir grapevine assessed as dieback lesion length at 25 g AI /100 L applied 24 hr prior inoculation to pruning wound measured after 3 months; assay type: functional
[17] = tested on: Neofusicoccum luteum; experiment: Fungicidal activity against Neofusicoccum luteum infected Pinot noir grapevine assessed as pathogen incidence at 2.5 g AI /100 L applied 24 hr prior inoculation to pruning wound measured after 3 months; assay type: functional
[18] = tested on: Neofusicoccum luteum; experiment: Fungicidal activity against Neofusicoccum luteum infected Pinot noir grapevine assessed as dieback lesion length at 2.5 g AI /100 L applied 24 hr prior inoculation to pruning wound measured after 3 months; assay type: functional
[19] = tested on: Neofusicoccum luteum; experiment: Fungicidal activity against Neofusicoccum luteum infected Pinot noir grapevine assessed as pathogen incidence at 50 g AI /100 L applied 24 hr prior inoculation to pruning wound measured after 3 months; assay type: functional
[20] = tested on: Neofusicoccum luteum; experiment: Fungicidal activity against Neofusicoccum luteum infected Pinot noir grapevine assessed as dieback lesion length at 50 g AI /100 L applied 24 hr prior inoculation to pruning wound measured after 3 months; assay type: functional
[21] = tested on: Neofusicoccum luteum; experiment: Fungicidal activity against Neofusicoccum luteum infected Pinot noir grapevine assessed as dieback lesion length at 32 g AI /100 L applied 24 hr prior inoculation to pruning wound measured after 3 months; assay type: functional
[22] = tested on: Neofusicoccum luteum; experiment: Fungicidal activity against Neofusicoccum luteum infected Pinot noir grapevine assessed as pathogen incidence at 32 g AI /100 L applied 24 hr prior inoculation to pruning wound measured after 3 months; assay type: functional
[23] = tested on: Neofusicoccum luteum; experiment: Fungicidal activity against Neofusicoccum luteum infected Pinot noir grapevine assessed as pathogen incidence at 39 g AI /100 L applied 24 hr prior inoculation to pruning wound measured after 3 months; assay type: functional
[24] = tested on: Neofusicoccum luteum; experiment: Fungicidal activity against Neofusicoccum luteum infected Pinot noir grapevine assessed as dieback lesion length at 39 g AI /100 L applied 24 hr prior inoculation to pruning wound measured after 3 months; assay type: functional
[25] = tested on: Neofusicoccum luteum; experiment: Fungicidal activity against Neofusicoccum luteum infected Pinot noir grapevine assessed as pathogen incidence at 40 g AI /100 L applied 24 hr prior inoculation to pruning wound measured after 3 months; assay type: functional
[26] = tested on: Neofusicoccum luteum; experiment: Fungicidal activity against Neofusicoccum luteum infected Pinot noir grapevine assessed as dieback lesion length at 40 g AI /100 L applied 24 hr prior inoculation to pruning wound measured after 3 months; assay type: functional
[27] = tested on: Neofusicoccum luteum; experiment: Fungicidal activity against Neofusicoccum luteum infected Pinot noir grapevine assessed as dieback lesion length at 210 g AI /100 L applied 24 hr prior inoculation to pruning wound measured after 3 months; assay type: functional
[28] = tested on: Neofusicoccum luteum; experiment: Fungicidal activity against Neofusicoccum luteum infected Pinot noir grapevine assessed as pathogen incidence at 210 g AI /100 L applied 24 hr prior inoculation to pruning wound measured after 3 months; assay type: functional
[29] = tested on: Neofusicoccum luteum; experiment: Fungicidal activity against Neofusicoccum luteum infected Pinot noir grapevine assessed as dieback lesion length at 4 g AI /100 L applied 24 hr prior inoculation to pruning wound measured after 3 months; assay type: functional
[30] = tested on: Neofusicoccum luteum; experiment: Fungicidal activity against Neofusicoccum luteum infected Pinot noir grapevine assessed as pathogen incidence at 4 g AI /100 L applied 24 hr prior inoculation to pruning wound measured after 3 months; assay type: functional
[31] = tested on: Neofusicoccum luteum; experiment: Fungicidal activity against Neofusicoccum luteum infected Pinot noir grapevine assessed as pathogen incidence at 55 g AI /100 L applied 24 hr prior inoculation to pruning wound measured after 3 months; assay type: functional
[32] = tested on: Neofusicoccum luteum; experiment: Fungicidal activity against Neofusicoccum luteum infected Pinot noir grapevine assessed as dieback lesion length at 55 g AI /100 L applied 24 hr prior inoculation to pruning wound measured after 3 months; assay type: functional
[33] = tested on: Neofusicoccum luteum; experiment: Fungicidal activity against Neofusicoccum luteum infected Pinot noir grapevine assessed as dieback lesion length at 80 g AI /100 L applied 24 hr prior inoculation to pruning wound measured after 3 months; assay type: functional, organism-based
[34] = tested on: Neofusicoccum luteum; experiment: Fungicidal activity against Neofusicoccum luteum infected Pinot noir grapevine assessed as pathogen incidence at 80 g AI /100 L applied 24 hr prior inoculation to pruning wound measured after 3 months; assay type: functional, organism-based

CCCN(CCOc1c(Cl)cc(Cl)cc1Cl)C(=O)n1ccnc1 [PROCHLORAZ]
EC50 [1]: 0.001 mgAi/L
Activity [2]: 43%
Activity [3]: 97%
Activity [4]: 67%
EC50 [5]: 46.86 mgAi/L
EC50 [6]: 13.23 mgAi/L
Activity [7]: 13%
EC50 [8]: 0.054 mgAi/L
Activity [9]: 60.5 mm
Activity [10]: 70%
EC50 [11]: 22.97 mgAi/L
EC50 [12]: 0.098 mgAi/L
Activity [13]: 0%
Activity [14]: 40%

COC(=O)Nc1nc2ccccc2[nH]1 [CARBENDAZIM]
Activity [2]: 9%
Activity [3]: 27%
Activity [4]: 10%
Activity [15]: 0%
EC50 [5]: 0.04 mgAi/L
EC50 [6]: 0.01 mgAi/L
Activity [7]: 3%
EC50 [8]: 0.061 mgAi/L
EC50 [11]: 0.01 mgAi/L
EC50 [12]: 0.023 mgAi/L
Activity [13]: 0%
Activity [14]: 7%
Activity [16]: 33.2 mm

OC(c1ccc(Cl)cc1)(c1cncnc1)c1ccccc1Cl (stereo unspecified) [FENARIMOL]
EC50 [1]: 0.076 mgAi/L
Activity [2]: 27%
Activity [3]: 77%
Activity [4]: 40%
EC50 [5]: 7.44 mgAi/L
EC50 [6]: 22.5 mgAi/L
Activity [7]: 0%
EC50 [8]: 0.399 mgAi/L
EC50 [11]: 0.48 mgAi/L
EC50 [12]: 0.58 mgAi/L
Activity [17]: 20%
Activity [18]: 52.8 mm
Activity [13]: 0%
Activity [14]: 20%

COCC(=O)N(c1c(C)cccc1C)C(C)C(=O)OC (stereo unspecified) [METALAXYL]
EC50 [1]: 61.995 mgAi/L
EC50 [5]: 218.01 mgAi/L
EC50 [6]: 113.11 mgAi/L
EC50 [8]: 188 mgAi/L
EC50 [11]: 45.72 mgAi/L
EC50 [12]: 102.6 mgAi/L

CC(C)NC(=O)N1CC(=O)N(c2cc(Cl)cc(Cl)c2)C1=O [IPRODIONE]
EC50 [1]: 0.247 mgAi/L
Activity [2]: 34%
Activity [3]: 83%
Activity [4]: 53%
EC50 [5]: 0.04 mgAi/L
EC50 [6]: 0.05 mgAi/L
Activity [7]: 3%
EC50 [8]: 0.314 mgAi/L
Activity [19]: 0%
EC50 [11]: 0.03 mgAi/L
EC50 [12]: 0.273 mgAi/L
Activity [13]: 0%
Activity [20]: 39.9 mm
Activity [14]: 30%

CC(C)(C)C(O)(CCc1ccc(Cl)cc1)Cn1cncn1 (stereo unspecified) [TEBUCONAZOLE]
EC50 [1]: 0.01 mgAi/L
Activity [2]: 16%
Activity [3]: 37%
Activity [4]: 27%
EC50 [5]: 6.23 mgAi/L
EC50 [6]: 3.38 mgAi/L
Activity [7]: 3%
EC50 [8]: 0.076 mgAi/L
Activity [21]: 50.2 mm
EC50 [11]: 0.6 mgAi/L
Activity [22]: 20%
EC50 [12]: 0.098 mgAi/L
Activity [13]: 0%
Activity [14]: 13%

N#Cc1sc2c(=O)c3ccccc3c(=O)c=2sc1C#N [DITHIANON]
EC50 [1]: 44.87 mgAi/L
EC50 [5]: 19.11 mgAi/L
EC50 [6]: 19.1 mgAi/L
EC50 [8]: 73.41 mgAi/L
Activity [23]: 30%
EC50 [11]: 11.39 mgAi/L
EC50 [12]: 58.897 mgAi/L
Activity [24]: 49.6 mm

COPPER HYDROXIDE [listing 1 of 2 here]
EC50 [1]: 68.64 mgAi/L
EC50 [5]: 8.7 mgAi/L
EC50 [6]: 5.68 mgAi/L
EC50 [8]: 77.437 mgAi/L
EC50 [11]: 4.16 mgAi/L
EC50 [12]: 106.83 mgAi/L

O=CNC(N1CCN(C(NC=O)C(Cl)(Cl)Cl)CC1)C(Cl)(Cl)Cl (stereo unspecified) [TRIFORINE]
EC50 [1]: 0.039 mgAi/L
EC50 [5]: 159.9 mgAi/L
EC50 [6]: 126.3 mgAi/L
EC50 [8]: 23.73 mgAi/L
EC50 [11]: 49.59 mgAi/L
EC50 [12]: 28.139 mgAi/L

COC(=O)NC(=S)Nc1ccccc1NC(=S)NC(=O)OC [THIOPHANATE METHYL]
EC50 [1]: 0.485 mgAi/L
Activity [2]: 20%
Activity [3]: 47%
Activity [4]: 33%
EC50 [5]: 2.41 mgAi/L
EC50 [6]: 5.09 mgAi/L
Activity [25]: 30%
Activity [7]: 3%
EC50 [8]: 1.237 mgAi/L
EC50 [11]: 0.29 mgAi/L
EC50 [12]: 1.079 mgAi/L
Activity [13]: 0%
Activity [26]: 53.3 mm
Activity [14]: 17%

N#Cc1c(Cl)c(Cl)c(Cl)c(C#N)c1Cl [CHLOROTHALONIL]
EC50 [1]: 0.258 mgAi/L
Activity [27]: 51.9 mm
EC50 [5]: 11.15 mgAi/L
Activity [28]: 30%
EC50 [6]: 10.79 mgAi/L
EC50 [8]: 7.873 mgAi/L
EC50 [11]: 1.35 mgAi/L
EC50 [12]: 3.847 mgAi/L

C[Si](Cn1cncn1)(c1ccc(F)cc1)c1ccc(F)cc1 [FLUSILAZOLE]
EC50 [1]: 0.001 mgAi/L
Activity [2]: 0%
Activity [3]: 0%
Activity [4]: 0%
EC50 [5]: 1.23 mgAi/L
EC50 [6]: 1.34 mgAi/L
Activity [7]: 0%
EC50 [8]: 0.003 mgAi/L
EC50 [11]: 0.56 mgAi/L
Activity [29]: 41.4 mm
EC50 [12]: 0.002 mgAi/L
Activity [30]: 0%
Activity [13]: 0%
Activity [14]: 0%

CC12CC1(C)C(=O)N(c1cc(Cl)cc(Cl)c1)C2=O (stereo unspecified) [PROCYMIDONE]
EC50 [1]: 0.227 mgAi/L
Activity [2]: 27%
Activity [3]: 70%
Activity [4]: 40%
EC50 [5]: 0.02 mgAi/L
EC50 [6]: 0.01 mgAi/L
Activity [7]: 7%
EC50 [8]: 0.183 mgAi/L
EC50 [12]: 0.23 mgAi/L
Activity [31]: 20%
Activity [32]: 47.8 mm
Activity [13]: 0%
Activity [14]: 20%

COPPER HYDROXIDE [listing 2 of 2 here]
Activity [33]: 41.9 mm
Activity [34]: 20%
